Values of other authors as cited in PMC2749889 (Journal of neurochemistry, 2009).
pIC50: −log10 of the molar value.

Tests used:
α6 ^* = settings: ref Klink et al. 2001; Mogg et al. 2002
α9 homomers = settings: read-out: IC50, α9 homomers; ref Verbitsky et al. 2000

Structure (SMILES): CCN1C[C@]2(COC(=O)c3ccccc3N3C(=O)C[C@H](C)C3=O)CC[C@H](OC)[C@@]34[C@@H]5C[C@H]6[C@H](OC)[C@@H]5[C@](O)(C[C@@H]6OC)[C@@](O)([C@@H](OC)[C@H]23)[C@@H]14 [MLA, Methyllycaconitine]
- block of α6 ^* (α6 ^*): blocks
- pIC50 (α9 homomers): 8.96
